# Data reported in the supplement of paper PMC11061612.
# Assays:
# Experiment in all cases: Bliss excess, mean over the matrix (fraction); higher = more synergy
# [1] = tested on: CAL-39 (Other Solid Carcinomas)
# In short: (§1)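 Cell lines in DMEM/F12 or RPMI with 10% FBS were plated in 1536-well plates, held 24 hours at 37°C, 5% CO2, then given two-drug dose matrices for 72 hours (DMSO typically 0.2%). Viability was read by CellTiter-Glo 2.0 luminescence and scaled as inhibition from 0 (vehicle wells) to 1 (blank wells). Combination Emax is the second-highest inhibition in the matrix; Bliss excess is observed combination effect minus expected EA + EB − EA·EB, EA and EB being single-agent effects.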
# [2] = tested on: EKVX (Non-Small Cell Lung Carcinoma)
# In short: as §1
# [3] = tested on: PA-TU-8902 (Pancreatic Carcinoma)
# In short: as §1
# [4] = tested on: SLVL (B-Cell Non-Hodgkin's Lymphoma)
# In short: as §1
# SK-MEL-1 (Melanoma) = tested on: SK-MEL-1 (Melanoma)
# In short: as §1
# [5] = tested on: SK-UT-1 (Other Solid Carcinomas)
# In short: as §1
# [6] = tested on: U-118-MG (Low Grade Glioma)
# In short: as §1
# [7] = tested on: WSU-DLCL2 (B-Cell Non-Hodgkin's Lymphoma)
# In short: as §1
# [8] = tested on: ETK-1 (Biliary Tract Carcinoma)
# In short: as §1
# [9] = tested on: JHH-6 (Hepatocellular Carcinoma)
# In short: as §1
# [10] = tested on: MEG-01 (Chronic Myelogenous Leukemia)
# In short: as §1
# EW-22 (Ewing's Sarcoma) = tested on: EW-22 (Ewing's Sarcoma)
# In short: as §1
# [11] = tested on: HOP-92 (Non-Small Cell Lung Carcinoma)
# In short: as §1
# [12] = tested on: DOK (Oral Cavity Carcinoma)
# In short: as §1
# [13] = tested on: GDM-1 (Acute Myeloid Leukemia)
# In short: as §1
# [14] = tested on: EFM-192A (Breast Carcinoma)
# In short: as §1
# [15] = tested on: YT (Other Blood Carcinomas)
# In short: as §1
# [16] = tested on: BICR78 (Oral Cavity Carcinoma)
# In short: as §1
# [17] = tested on: HCT-116 (Colorectal Carcinoma)
# In short: as §1
# A172 (Glioblastoma) = tested on: A172 (Glioblastoma)
# In short: as §1
Compound,Bliss excess [1],Bliss excess [2],Bliss excess [3],Bliss excess [4],Bliss excess (SK-MEL-1 (Melanoma)),Bliss excess [5],Bliss excess [6],Bliss excess [7],Bliss excess [8],Bliss excess [9],Bliss excess [10],Bliss excess (EW-22 (Ewing's Sarcoma)),Bliss excess [11],Bliss excess [12],Bliss excess [13],Bliss excess [14],Bliss excess [15],Bliss excess [16],Bliss excess [17],Bliss excess (A172 (Glioblastoma))
"Cc1c2c(nn1C)CSCc1cc(n(C)n1)CSc1cc(c3ccccc3c1)OCCCc1c(C(=O)O)n(C)c3c-2c(Cl)ccc13 [AZD5991] + CC1(C)CCC(CN2CCN(c3ccc(C(=O)NS(=O)(=O)c4ccc(NCC5CCOCC5)c([N+](=O)[O-])c4)c(Oc4cnc5[nH]ccc5c4)c3)CC2)=C(c2ccc(Cl)cc2)C1 [Venetoclax] (first compound max 1 µM, 7x7, partner max 1 µM)",-0.0298,-0.0423,-0.0595,0.147,-0.0536,-0.0095,-0.0328,0.173,-0.0526,-0.0417,0.105,0.128,0.0247,0.0712,0.174,0.0257,-0.0017,-0.0106,-0.0317,-0.0222
"Cc1c2c(nn1C)CSCc1cc(n(C)n1)CSc1cc(c3ccccc3c1)OCCCc1c(C(=O)O)n(C)c3c-2c(Cl)ccc13 [AZD5991] + CCN(CCO)CCCOc1ccc2c(Nc3cc(CC(=O)Nc4cccc(F)c4)[nH]n3)ncnc2c1 [AZD2811] (first compound max 1 µM, 7x7, partner max 1 µM)",-0.0192,-0.0356,-0.0356,0.0734,-0.0194,0.0125,0.0042,0.0804,-0.0018,-0.0298,0.002,0.0711,0.0184,0.0524,0.0444,0.0012,0.0185,0.0088,0.0295,-0.0101
"Cc1c2c(nn1C)CSCc1cc(n(C)n1)CSc1cc(c3ccccc3c1)OCCCc1c(C(=O)O)n(C)c3c-2c(Cl)ccc13 [AZD5991] + CN(C)CCCOc1ccc(-c2ccc3ncc4c(c3c2)n(C2CCOCC2)c(=O)n4C)cn1 [AZD0156] (first compound max 1 µM, 7x7, partner max 1 µM)",-0.0786,-0.0139,0.0116,0.0198,-0.0322,-0.0195,-0.0035,-0.0033,-0.0503,-0.0079,-0.007,-0.0015,-0.044,-0.0121,0.0079,-0.0427,-0.0197,0.0199,0.0431,-0.0019
"Cc1c2c(nn1C)CSCc1cc(n(C)n1)CSc1cc(c3ccccc3c1)OCCCc1c(C(=O)O)n(C)c3c-2c(Cl)ccc13 [AZD5991] + C[C@@H](Nc1cc(F)cc(F)c1)c1cc(C(=O)N(C)C)cc2c(=O)cc(N3CCOCC3)oc12 [AZD8186] (first compound max 1 µM, 7x7, partner max 3 µM)",0.0117,0.0062,-0.0361,-0.0262,-0.0232,-0.0104,0.0012,-0.058,-0.0221,-0.0281,0.0019,-0.0396,0.0222,0.003,0.0355,-0.0207,0.0223,-0.034,-0.0421,-0.004
"Cc1c2c(nn1C)CSCc1cc(n(C)n1)CSc1cc(c3ccccc3c1)OCCCc1c(C(=O)O)n(C)c3c-2c(Cl)ccc13 [AZD5991] + Cn1cnc2c(F)c(Nc3ccc(Br)cc3Cl)c(C(=O)NOCCO)cc21 [Selumetinib] (first compound max 1 µM, 7x7, partner max 3 µM)",0.02,-0.0474,-0.0466,0.0516,-0.01,-0.0063,-0.0054,-0.0123,-0.005,-0.0116,0.139,-0.019,-0.0332,0.0495,0.0387,-0.0116,-0.0051,-0.0106,-0.0049,0.0179
"Cc1cc2ncnn2cc1Nc1ncc2c(n1)n(C1CCOCC1)c(=O)n2C [AZD7648] + C=CCn1c(=O)c2cnc(Nc3ccc(N4CCN(C)CC4)cc3)nc2n1-c1cccc(C(C)(C)O)n1 [AZD1775] (first compound max 10 µM, partner max 1 µM)",-0.0211,0.0061,0.0152,-0.035,-0.0561,0.0203,-0.0041,-0.0048,-0.0144,0.011,-0.0209,-0.0043,-0.0022,0.0331,-0.0239,0.0338,-0.124,0.0189,0.008,0.0587
"Cc1cc2ncnn2cc1Nc1ncc2c(n1)n(C1CCOCC1)c(=O)n2C [AZD7648] + CCN(CCO)CCCOc1ccc2c(Nc3cc(CC(=O)Nc4cccc(F)c4)[nH]n3)ncnc2c1 [AZD2811] (first compound max 10 µM, 7x7, partner max 1 µM)",-0.0393,-0.0199,0.0315,0.0756,-0.0162,0.0407,0.0172,0.127,-0.0025,0.0238,-0.0233,-0.0261,-0.0038,0.0123,-0.036,-0.0175,0.0407,-0.0135,0.0304,0.0537
"Cc1cc2ncnn2cc1Nc1ncc2c(n1)n(C1CCOCC1)c(=O)n2C [AZD7648] + CN(C)CCCOc1ccc(-c2ccc3ncc4c(c3c2)n(C2CCOCC2)c(=O)n4C)cn1 [AZD0156] (first compound max 10 µM, 7x7, partner max 1 µM)",-0.0104,0.0001,-0.0013,-0.0164,-0.0082,0.0143,-0.0217,0.0127,-0.0041,-0.0033,-0.0108,0.0335,-0.0136,-0.0075,-0.0215,-0.0119,-0.0389,0.0054,0.0277,-0.034
"Cc1cc2ncnn2cc1Nc1ncc2c(n1)n(C1CCOCC1)c(=O)n2C [AZD7648] + C[C@@H]1COCCN1C2=NC(=NC(=C2)C3(CC3)[S@](=N)(=O)C)C4=C5C=CNC5=NC=C4 [AZD6738] (first compound max 10 µM, 7x7, partner max 10 µM)",0.0081,0.0353,0.0186,-0.0178,-0.0388,0.0471,-0.0049,-0.001,-0.0173,0.036,-0.0473,0.0058,0.0104,0.0441,-0.022,0.0421,-0.0476,-0.0018,-0.0102,-0.0552
"Cc1cc2ncnn2cc1Nc1ncc2c(n1)n(C1CCOCC1)c(=O)n2C [AZD7648] + O=C(c1cc(Cc2n[nH]c(=O)c3ccccc23)ccc1F)N1CCN(C(=O)C2CC2)CC1 [Olaparib] (first compound max 10 µM, 7x7, partner max 10 µM)",-0.0323,-0.0563,-0.0237,-0.0027,0.0039,-0.0331,-0.0441,-0.0096,0.0223,-0.0516,-0.0086,-0.0664,-0.0144,-0.0334,-0.011,-0.0533,-0.0004,-0.0056,-0.0502,-0.007
"COc1cccc2c1C(=O)c1c(O)c3c(c(O)c1C2=O)C[C@@](O)(C(=O)CO)C[C@@H]3O[C@H]1C[C@H](N)[C@H](O)[C@H](C)O1 [Doxorubicin] + Cc1cc2ncnn2cc1Nc1ncc2c(n1)n(C1CCOCC1)c(=O)n2C [AZD7648] (first compound max 1 µM, 7x7, partner max 10 µM)",0.0233,0.0083,0.0081,0.0656,0.0138,0.093,0.0909,0.101,0.0878,0.0476,0.0698,0.061,0.0271,0.0485,0.112,-0.0216,0.0344,0.028,0.0556,0.0789
"COc1cccc(OCCCN)c1-c1cc(Nc2cnc(C#N)cn2)n[nH]1 [Prexasertib] + C=CCn1c(=O)c2cnc(Nc3ccc(N4CCN(C)CC4)cc3)nc2n1-c1cccc(C(C)(C)O)n1 [AZD1775] (first compound max 1 µM, partner max 1 µM)",0.0679,-0.024,0.0716,0.0481,-0.0084,0.071,0.0225,0.138,0.0651,0.0849,0.0016,0.223,-0.0601,0.108,0.0096,0.0662,-0.0086,0.0619,0.083,0.142
"COc1cccc(OCCCN)c1-c1cc(Nc2cnc(C#N)cn2)n[nH]1 [Prexasertib] + CCc1c2c(nc3ccc(O)cc13)-c1cc3c(c(=O)n1C2)COC(=O)[C@]3(O)CC [SN-38] (first compound max 1 µM, 7x7, partner max 0.3 µM)",-0.0308,-0.0347,0.049,-0.0258,-0.0593,-0.0125,-0.0193,-0.006,0.0465,0.0337,-0.0073,-0.0916,0.0418,0.0242,-0.0108,0.0304,-0.0527,-0.0236,-0.0124,-0.0322
"COc1cccc(OCCCN)c1-c1cc(Nc2cnc(C#N)cn2)n[nH]1 [Prexasertib] + CN(C)CCCOc1ccc(-c2ccc3ncc4c(c3c2)n(C2CCOCC2)c(=O)n4C)cn1 [AZD0156] (first compound max 1 µM, 7x7, partner max 1 µM)",0.0099,-0.0039,0.0068,0.0036,-0.0194,-0.0039,0.041,0.0086,0.0229,0.0349,-0.0411,-0.05,0.0056,-0.0225,-0.0491,0.0078,-0.0114,-0.0292,-0.0194,0.0542
"COc1cccc(OCCCN)c1-c1cc(Nc2cnc(C#N)cn2)n[nH]1 [Prexasertib] + C[C@@H]1COCCN1C2=NC(=NC(=C2)C3(CC3)[S@](=N)(=O)C)C4=C5C=CNC5=NC=C4 [AZD6738] (first compound max 1 µM, 7x7, partner max 10 µM)",0.0251,-0.0018,0.0229,-0.0455,-0.015,-0.0259,-0.0136,0.0096,-0.0028,0.0207,-0.0542,-0.0326,-0.0039,0.0689,-0.0333,0.0131,-0.0631,-0.0057,0.103,0.0013
